Test results: patent publication US9139557B2, “Carboxamide compounds and their use as calpain inhibitors” (Abbott GmbH & Co. KG, priority 2006, dated 2015)

Experiments:
Format in all cases: biochemical
cathepsin S = target: T1, cathepsin S (Homo sapiens, UniProt P25774); experiment: Cathepsin S enzyme inhibition in vitro (kinetic fluorescence assay); conditions: Ki(cathepsin S)/Ki(calpain) ratio
T1 construct: purchased Calbiochem 219343; host or cells: E. coli
In short: (§1)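 Kinetic fluorescence (ex 390/em 460 nm), room temperature: calpain-I (human erythrocyte, 20 nM) with 100 µM Suc-Leu-Tyr-AMC, imidazole/CaCl2 pH 7.3; cathepsin B (liver, 0.25 nM), 100 µM Z-Phe-Arg-AMC; L (liver, 1 nM), 2 µM Z-Phe-Arg-AMC; S (recombinant, 0.5 nM), 20 µM Z-Val-Val-Arg-AMC; cathepsins in MES/EDTA/cysteine pH 6.0. Apparent Ki via Cheng-Prusoff, 2–4 curves averaged.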

cathepsin L = target: T2, cathepsin L (Homo sapiens, UniProt P07711); experiment: Cathepsin L enzyme inhibition in vitro (kinetic fluorescence assay); conditions: Ki(cathepsin L)/Ki(calpain) ratio
T2 construct: cathepsin L—isolated from human liver; purchased Calbiochem 219402; host or cells: human liver (tissue isolate)
In short: as §1

cathepsin K = target: T3, cathepsin K (Homo sapiens, UniProt P43235); experiment: Cathepsin K enzyme inhibition in vitro (kinetic fluorescence assay); conditions: Ki(cathepsin K)/Ki(calpain) ratio
T3 construct: purchased Calbiochem 342001; host or cells: E. coli
T3 sequence (P43235 115-329): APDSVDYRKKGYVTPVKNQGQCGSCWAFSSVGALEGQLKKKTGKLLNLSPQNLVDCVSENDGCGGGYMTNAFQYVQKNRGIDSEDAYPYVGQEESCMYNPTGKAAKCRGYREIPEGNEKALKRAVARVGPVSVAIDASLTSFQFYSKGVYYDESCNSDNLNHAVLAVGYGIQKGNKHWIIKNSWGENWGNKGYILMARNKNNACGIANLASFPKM
Procedure: Testing for blockade of the corresponding enzymic activities was carried out by means of kinetic fluorescence assays (excitation 390 nm, emission 460 nm).
Apparent Ki values were calculated from the experimentally determined IC50 values by the Cheng-Prussoff relation assuming a reversible competitive enzyme inhibition. The Km values of the substrates used under the assay conditions indicated above were: 90 μM (Z-Phe-Arg-AMC, cathepsin B), 10 μM (Z-Gly-Pro-Arg-AMC, cathepsin K), 2 μM (Z-Phe-Arg-AMC, cathepsin L), and 30 μM (Z-Val-Val-Arg-AMC, cathepsin S).
The indicated Ki values are averages of the inhibition constants calculated on the basis of 2 to 4 independent dose-effect plots.
• 1. Calpain I: • 20 nM calpain-I—isolated from human erythrocytes (Calbiochem #208713), 100 μM Suc-Leu-Tyr-AMC (Bachem #1-1355) as substrate in buffer with 62 mM imidazole, 0.3 mM CaCl2, 0.10% CHAPS, 0.05% BSA, 1 mM DTT at pH 7.3 and room temperature. • 2. Cathepsin B: • 0.25 nM cathepsin B—isolated from human liver (Calbiochem #219362), 100 μM Z-Phe-Arg-AMC (Bachem #1-1160) as substrate 50 mM MES, 2 mM EDTA, 0.05% Brij 35, 2.5 mM L-cysteine, pH 6.0, room temperature. • 3. Cathepsin K: • 3 nM cathepsin K—activated from recombinant human procathepsin K from E. coli (Calbiochem #342001), 10 μM Z-Gly-Pro-Arg-AMC (Biomol #P-142) as substrate in 50 mM MES, 2 mM EDTA, 0.05% Brij 35, 2.5 mM L-cysteine, pH 6.0, room temperature. • 4. Cathepsin L: • 1 nM cathepsin L—isolated from human liver (Calbiochem #219402), 2 μM Z-Phe-Arg-AMC (Bachem #1-1160) as substrate in 50 mM MES, 2 mM EDTA, 0.05% Brij 35, 2.5 mM L-cysteine, pH 6.0, room temperature. • 5. Cathepsin S: • 0.5 nM recombinant human cathepsin S from E. coli (Calbiochem #219343), 20 μM Z-Val-Val-Arg-AMC (Bachem #1-1540) as substrate in 50 mM MES, 2 mM EDTA, 0.05% Brij 35, 2.5 mM L-cysteine, pH 6.0, room temperature.

cathepsin B = target: T4, cathepsin B (Homo sapiens, UniProt P07858); experiment: Cathepsin B enzyme inhibition in vitro (kinetic fluorescence assay); conditions: Ki(cathepsin B)/Ki(calpain) ratio
T4 construct: cathepsin B—isolated from human liver; purchased Calbiochem 219362; host or cells: human liver (tissue isolate)
In short: as §1

T1 sequence (P25774 115-331): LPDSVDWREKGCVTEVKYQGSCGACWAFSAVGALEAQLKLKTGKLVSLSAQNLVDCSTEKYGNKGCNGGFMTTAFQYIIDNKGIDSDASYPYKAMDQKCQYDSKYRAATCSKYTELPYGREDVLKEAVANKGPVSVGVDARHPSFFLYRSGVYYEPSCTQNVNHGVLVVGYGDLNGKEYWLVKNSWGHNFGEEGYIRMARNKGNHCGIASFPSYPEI
T2 sequence (P07711 114-333): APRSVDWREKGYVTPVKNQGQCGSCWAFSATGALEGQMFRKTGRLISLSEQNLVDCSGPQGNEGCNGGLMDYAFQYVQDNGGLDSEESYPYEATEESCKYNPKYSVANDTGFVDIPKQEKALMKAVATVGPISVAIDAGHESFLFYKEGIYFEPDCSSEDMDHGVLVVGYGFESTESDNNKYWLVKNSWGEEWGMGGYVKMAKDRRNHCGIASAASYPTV

NC(=O)C(=O)C(Cc1ccccc1)NC(=O)c1cccnc1-n1ccc(-c2ccccc2C(F)(F)F)n1 (stereo not shown) [Example 72, N-(3-Amino-1-benzyl-2,3-dioxopropyl)-2-{3-[2-(trifluoromethyl)phenyl]-1H-pyrazol-1-yl}nicotinamide]
Sel cat. S (cathepsin S): ++ (++ means a Ki(cathepsin S)/Ki(calpain) ratio of ≧100) | Sel cat. L (cathepsin L): + (+ means 30≦Ki(cathepsin L)/Ki(calpain)<50) | Sel cat. K (cathepsin K): + (+ means 10≦Ki(cathepsin K)/Ki(calpain)<30) | Sel cat. B (cathepsin B): + (+ means 10≦Ki(cathepsin B)/Ki(calpain)<30)

NC(=O)C(=O)C(Cc1ccccc1)NC(=O)c1cccnc1-n1ccc(-c2ccccc2F)n1 (stereo not shown) [Example 76, N-(3-Amino-1-benzyl-2,3-dioxopropyl)-2-[3-(2-fluorophenyl)-1H-pyrazol-1-yl]nicotinamide]
Sel cat. S (cathepsin S): ++ (++ means a Ki(cathepsin S)/Ki(calpain) ratio of ≧100) | Sel cat. L (cathepsin L): ++ (++ means a Ki(cathepsin L)/Ki(calpain) ratio of ≧50) | Sel cat. K (cathepsin K): + (+ means 10≦Ki(cathepsin K)/Ki(calpain)<30) | Sel cat. B (cathepsin B): ++ (++ means a Ki(cathepsin B)/Ki(calpain) ratio of ≧30)

NC(=O)C(=O)C(Cc1ccccc1)NC(=O)c1cccnc1-n1ccc(-c2ccc(Cl)cc2Cl)n1 (stereo not shown) [Example 79, N-(3-Amino-1-benzyl-2,3-dioxopropyl)-2-[3-(2,4-dichlorophenyl)-1H-pyrazol-1-yl]nicotinamide]
Sel cat. S (cathepsin S): ++ (++ means a Ki(cathepsin S)/Ki(calpain) ratio of ≧100) | Sel cat. L (cathepsin L): ++ (++ means a Ki(cathepsin L)/Ki(calpain) ratio of ≧50) | Sel cat. K (cathepsin K): ++ (++ means a Ki(cathepsin K)/Ki(calpain) ratio of ≧30) | Sel cat. B (cathepsin B): ++ (++ means a Ki(cathepsin B)/Ki(calpain) ratio of ≧30)

COc1ccc(CC(NC(=O)c2cccnc2-n2ccc(-c3ccccc3)n2)C(=O)C(N)=O)cc1 (stereo not shown) [Example 80, N-[3-Amino-1-(4-methoxybenzyl)-2,3-dioxopropyl]-2-(3-phenyl-1H-pyrazol-1-yl)nicotinamide]
Sel cat. S (cathepsin S): ++ (++ means a Ki(cathepsin S)/Ki(calpain) ratio of ≧100) | Sel cat. L (cathepsin L): ++ (++ means a Ki(cathepsin L)/Ki(calpain) ratio of ≧50) | Sel cat. K (cathepsin K): + (+ means 10≦Ki(cathepsin K)/Ki(calpain)<30) | Sel cat. B (cathepsin B): ++ (++ means a Ki(cathepsin B)/Ki(calpain) ratio of ≧30)

COc1ccc(CC(NC(=O)c2cccnc2-n2ccc(-c3ccc(F)cc3)n2)C(=O)C(N)=O)cc1 (stereo not shown) [Example 81, N-[3-Amino-1-(4-methoxybenzyl)-2,3-dioxopropyl]-2-[3-(4-fluorophenyl)-1H-pyrazol-1-yl]nicotinamide]
Sel cat. S (cathepsin S): ++ (++ means a Ki(cathepsin S)/Ki(calpain) ratio of ≧100) | Sel cat. L (cathepsin L): ++ (++ means a Ki(cathepsin L)/Ki(calpain) ratio of ≧50) | Sel cat. K (cathepsin K): + (+ means 10≦Ki(cathepsin K)/Ki(calpain)<30) | Sel cat. B (cathepsin B): + (+ means 10≦Ki(cathepsin B)/Ki(calpain)<30)

NC(=O)C(=O)C(Cc1ccccc1)NC(=O)c1cccnc1-n1ccc(-c2cccc(C(F)(F)F)c2)n1 (stereo not shown) [Example 83, N-(3-Amino-1-benzyl-2,3-dioxopropyl)-2-{3-[3-(trifluoromethyl)phenyl]-1H-pyrazol-1-yl}nicotinamide]
Sel cat. S (cathepsin S): ++ (++ means a Ki(cathepsin S)/Ki(calpain) ratio of ≧100) | Sel cat. L (cathepsin L): ++ (++ means a Ki(cathepsin L)/Ki(calpain) ratio of ≧50) | Sel cat. K (cathepsin K): ++ (++ means a Ki(cathepsin K)/Ki(calpain) ratio of ≧30) | Sel cat. B (cathepsin B): + (+ means 10≦Ki(cathepsin B)/Ki(calpain)<30)

NC(=O)C(=O)C(Cc1ccccc1)NC(=O)c1cccnc1-n1ccc(-c2c(F)cccc2F)n1 (stereo not shown) [Example 85, N-[3-Amino-2,3-dioxo-1-(phenylmethyl)propyl]-2-[3-(2,6-difluorophenyl)-1H-pyrazol-1-yl]pyridine-3-carboxamide]
Sel cat. S (cathepsin S): ++ (++ means a Ki(cathepsin S)/Ki(calpain) ratio of ≧100) | Sel cat. L (cathepsin L): ++ (++ means a Ki(cathepsin L)/Ki(calpain) ratio of ≧50) | Sel cat. K (cathepsin K): ++ (++ means a Ki(cathepsin K)/Ki(calpain) ratio of ≧30) | Sel cat. B (cathepsin B): + (+ means 10≦Ki(cathepsin B)/Ki(calpain)<30)

CC(C)c1ccc(-c2ccn(-c3ncccc3C(=O)NC(Cc3ccccc3)C(=O)C(N)=O)n2)cc1 (stereo not shown) [Example 87, N-[3-Amino-2,3-dioxo-1-(phenylmethyl)propyl]-2-{3-[4-(1-methylethyl)phenyl]-1H-pyrazol-1-yl}pyridine-3-carboxamide]
Sel cat. S (cathepsin S): ++ (++ means a Ki(cathepsin S)/Ki(calpain) ratio of ≧100) | Sel cat. L (cathepsin L): ++ (++ means a Ki(cathepsin L)/Ki(calpain) ratio of ≧50) | Sel cat. K (cathepsin K): ++ (++ means a Ki(cathepsin K)/Ki(calpain) ratio of ≧30) | Sel cat. B (cathepsin B): ++ (++ means a Ki(cathepsin B)/Ki(calpain) ratio of ≧30)

Cl.NC(=O)C(=O)C(Cc1cccnc1)NC(=O)c1cccnc1-n1ccc(-c2ccccc2)n1 (stereo not shown) [Example 88, N-[3-Amino-2,3-dioxo-1-(pyridin-3-ylmethyl)propyl]-2-(3-phenyl-1H-pyrazol-1-yl)pyridine-3-carboxamide hydrochloride]
Sel cat. S (cathepsin S): ++ (++ means a Ki(cathepsin S)/Ki(calpain) ratio of ≧100) | Sel cat. L (cathepsin L): ++ (++ means a Ki(cathepsin L)/Ki(calpain) ratio of ≧50) | Sel cat. K (cathepsin K): ++ (++ means a Ki(cathepsin K)/Ki(calpain) ratio of ≧30) | Sel cat. B (cathepsin B): + (+ means 10≦Ki(cathepsin B)/Ki(calpain)<30)

COc1ccccc1-c1ccn(-c2ncccc2C(=O)NC(Cc2ccccc2)C(=O)C(N)=O)n1 (stereo not shown) [Example 90, N-[3-Amino-2,3-dioxo-1-(phenylmethyl)propyl]-2-{3-[2-(methyloxy)phenyl]-1H-pyrazol-1-yl}pyridine-3-carboxamide]
Sel cat. S (cathepsin S): ++ (++ means a Ki(cathepsin S)/Ki(calpain) ratio of ≧100) | Sel cat. L (cathepsin L): ++ (++ means a Ki(cathepsin L)/Ki(calpain) ratio of ≧50) | Sel cat. K (cathepsin K): + (+ means 10≦Ki(cathepsin K)/Ki(calpain)<30) | Sel cat. B (cathepsin B): ++ (++ means a Ki(cathepsin B)/Ki(calpain) ratio of ≧30)

NC(=O)C(=O)C(Cc1ccccc1)NC(=O)c1cccnc1-n1ccc(-c2cc(F)cc(F)c2)n1 (stereo not shown) [Example 91, N-[3-Amino-2,3-dioxo-1-(phenylmethyl)propyl]-2-[3-(3,5-difluorophenyl)-1H-pyrazol-1-yl]pyridine-3-carboxamide]
Sel cat. S (cathepsin S): ++ (++ means a Ki(cathepsin S)/Ki(calpain) ratio of ≧100) | Sel cat. L (cathepsin L): ++ (++ means a Ki(cathepsin L)/Ki(calpain) ratio of ≧50) | Sel cat. K (cathepsin K): + (+ means 10≦Ki(cathepsin K)/Ki(calpain)<30) | Sel cat. B (cathepsin B): ++ (++ means a Ki(cathepsin B)/Ki(calpain) ratio of ≧30)

COc1ccc(CC(NC(=O)c2cccnc2-n2ccc(-c3ccccc3F)n2)C(=O)C(N)=O)cc1 (stereo not shown) [Example 92, N-(3-Amino-1-{[4-(methyloxy)phenyl]methyl}-2,3-dioxopropyl)-2-[3-(2-fluorophenyl)-1H-pyrazol-1-yl]pyridine-3-carboxamide]
Sel cat. S (cathepsin S): ++ (++ means a Ki(cathepsin S)/Ki(calpain) ratio of ≧100) | Sel cat. L (cathepsin L): ++ (++ means a Ki(cathepsin L)/Ki(calpain) ratio of ≧50) | Sel cat. K (cathepsin K): + (+ means 10≦Ki(cathepsin K)/Ki(calpain)<30) | Sel cat. B (cathepsin B): ++ (++ means a Ki(cathepsin B)/Ki(calpain) ratio of ≧30)

Cc1ccccc1-c1ccn(-c2ncccc2C(=O)NC(Cc2ccccc2)C(=O)C(N)=O)n1 (stereo not shown) [Example 93, N-[3-Amino-2,3-dioxo-1-(phenylmethyl)propyl]-2-[3-(2-methylphenyl)-1H-pyrazol-1-yl]pyridine-3-carboxamide]
Sel cat. S (cathepsin S): ++ (++ means a Ki(cathepsin S)/Ki(calpain) ratio of ≧100) | Sel cat. L (cathepsin L): ++ (++ means a Ki(cathepsin L)/Ki(calpain) ratio of ≧50) | Sel cat. K (cathepsin K): + (+ means 10≦Ki(cathepsin K)/Ki(calpain)<30) | Sel cat. B (cathepsin B): ++ (++ means a Ki(cathepsin B)/Ki(calpain) ratio of ≧30)
